Reference: patent US20170145002A1, “DEUTERATED ISOXAZOLE DERIVATIVES AND THEIR USE AS METABOTROPIC GLUTAMATE RECEPTOR POTENTIATORS” (AstraZeneca AB, priority 2015, published 2017)

What was measured:
[1] = Metabolic stability and intrinsic clearance in dog hepatocytes; type: in vitro ADME; details: cryopreserved dog hepatocytes 1.0×10^6 viable cells/mL, 37° C., up to 120 minutes; read-out: Dog Hepatocytes Median t1/2
Description: Stock solutions (10 mM) of the test compounds and control compounds were prepared in appropriate solvent (DMSO). The incubation medium (L-15 Medium) was placed in a 37° C. water bath, and warming was allowed for at least 15 minutes prior to use. 80 μL of acetonitrile was added to each well of the 96-well deep well plate (quenching plate). In a new 96-well plate, the 10 mM test compound solutions and the control compound solution were diluted to 100 μM by combining 198 μL of acetonitrile and 2 μL of 10 mM stock. A vial of cryopreserved dog hepatocytes was removed from storage, while ensuring that vials remain at cryogenic temperatures until thawing process ensued. As quickly as possible, the cells were thawed by placing the vial in a 37° C. water bath and gently shaking the vials. Vials remained in water bath until all ice crystals had dissolved and were no longer visible. After thawing was complete, vial was sprayed with 70% ethanol, and transferred to a biosafety cabinet. The vial was opened and the contents poured into the 50 mL conical tube containing thawing medium. The 50 mL conical tube was placed into a centrifuge and spun at 100 g for 10 minutes. Upon completion of spin, the thawing medium was aspirated and hepatocytes resuspended in enough incubation medium to yield ˜1.5×10^6 cells/mL. Using Cellometer® Vision, cells were counted and the viable cell density was determined. Cells with poor viability (<80% viability) were not acceptable for use. Cells were diluted with incubation medium to a working cell density of 1.0×10^6 viable cells/mL. 247.5 μL of hepatocytes were transferred into each well of a 96-well cell culture plate. The plate was placed on Eppendorf Thermomixer Comfort plate shaker to allow the hepatocytes to warm for 10 minutes. 2.5 μL of 100 μM test compound solution or control compound solution were added into an incubation well containing cells, and mixed to achieve a homogenous suspension at 0.5 minutes, which when achieved, defined the 0.5 minute time point. At the 0.5 minute time point, 20 μL of incubated mixture was transferred to wells in a “Quenching” plate followed by vortexing. The plate was incubated at 37 ° C. at 900 rpm on an Eppendorf Thermomixer Comfort plate shaker. At 5, 15, 30, 45, 60, 80, 100 minutes and 120 minutes, the incubation system was mixed and samples of 20 μL of incubated mixture were serially transferred at each time point to wells in a separate “Quenching” plate followed by vortexing. The quenching plates were centrifuged for 20 minutes at 4,000 rpm. […]
All calculations were carried out using Microsoft Excel. Peak areas were determined from extracted ion chromatograms. […]
The in vitro intrinsic clearance (in vitro Clint, in μL/min/10^6 cells) is determined from the slope value using the following equation: […]

CYP3A4 = CYP3A4 (Homo sapiens, UniProt P08684); test: CYP isoform phenotyping; type: in vitro ADME; details: for CYP 3A4 (% contribution): recombinant human CYP isozymes, parent disappearance; for Contribution of CYP3A4 to metabolism (in words): assay conditions of Example 8
Description: This assay was used to determine whether Compounds A, B, C and D are metabolised by CYP enzymes.
Solutions (200 μmol/L) of each Compound A, B, C and D as well as of positive controls (phenacetin for CYP1A2, coumarin for CYP2A6, bupropion for CYP2B6, amitriptyline for CYP2C8, 2C19, 2D6 and 3A4, diclofenac for CYP2C9, chlorzoxazone for CYP2E1, midazolam for CYP3A5) were prepared by adding 4 μL of a 10 mmol/L stock solution in DMSO to 196 μL of acetonitrile. The recombinant human CYP isozymes were thawed on wet ice (over an hour). Mixtures (2670 μL) of CYP isozymes in phosphate buffer containing 112.36 nmol/L CYP1A2, 2A6, 2B6, 2C8, 2C9, 2C19, 2D6, 2E1, 3A4 or 3A5 were prepared. The CYP isozyme mixture (222.5 [EL), 25 μL of 10 mmol/L of NADPH solution and 2.5 μL of vehicle control (2: 98 DMSO/acetonitrile) were added to the blank control plate. The resulting mixture was mixed on a whirly mixer for 10 seconds before a stop solution (1000 μL) with internal standard containing 200 nmol/L of 5,5-diethyl-1,3-diphenyl-2-iminobarbituric acid and 100 nmol/L of tolbutamide was added. The blank control plate was sealed with a lid and mixed on whirly mixer for 120 seconds, and kept on ice prior to centrifugation.
The standard samples containing 200 pmol/mL hydroxybupropion and 40 pmol/mL 6-hydroxychlorzoxazone were obtained as follows: the CYP isozyme mixture (222.5 μL) and 25 μL of 10 mmol/L NADPH solution were added to separate wells of the blank control plate. 2.5 μL of a 20 nmol/mL hydroxybupropion solution was added to one well and 2.5 μL of a 4 nmol/mL 6-hydroxychlorzoxazone solution was added to the other well. Mixing was conducted on a whirly mixer for 10 seconds. The stop solution with internal standard (1000 μL) was added to both wells. The blank control plate was sealed with a lid and mixing was conducted on a whirly mixer for 120 seconds. The blank control plate was kept on ice prior to centrifugation.
The CYP isozyme mixtures (222.5 μL) and Compounds A, B, C, D and the positive controls (2.5 μL of each 200 μmol/L solution) were added to the incubation plates. Mixing on a whirly mixer was conducted for 10 seconds. The incubation plate was pre-warmed at 37° C. for 15 minutes. The CYP/compound mixture (27 μL) was transferred from the incubation plate to the 0 minute “Quenching plates” containing 120 μL of the stop solution and 3 μL of a 10 mmol/L NADPH solution. The 0 minute “Quenching plates” was sealed with a lid and kept on ice. Mixing of the 0 minute “Quenching plates” on a whirly mixer was conducted for 120 seconds. The reaction was initiated with the addition of 22 μL of a 10 mmol/L of NADPH solution to the incubation plate. Mixing of the incubation mixture on a whirly mixer was conducted for 10 seconds. The incubation was carried out at 37° C. At 5, 10, 15 and 25 minutes, the incubation mixture was mixed on a whirly mixer for 10 seconds and samples of the incubated mixture (30 μL) were transferred at each time point to wells in a separate “Quenching plate” containing 120 μL of the stop solution, which was sealed with a lid and kept on ice. Mixing on a whirly mixer was conducted for 120 seconds. […]
All calculations are carried out using Microsoft Excel. Peak areas were determined from extracted ion chromatograms. The percentage of parent remaining was calculated from peak area of Compounds A, B, C, D and positive controls. […]

Chain of CYP3A4 (P08684 whole entry, canonical isoform): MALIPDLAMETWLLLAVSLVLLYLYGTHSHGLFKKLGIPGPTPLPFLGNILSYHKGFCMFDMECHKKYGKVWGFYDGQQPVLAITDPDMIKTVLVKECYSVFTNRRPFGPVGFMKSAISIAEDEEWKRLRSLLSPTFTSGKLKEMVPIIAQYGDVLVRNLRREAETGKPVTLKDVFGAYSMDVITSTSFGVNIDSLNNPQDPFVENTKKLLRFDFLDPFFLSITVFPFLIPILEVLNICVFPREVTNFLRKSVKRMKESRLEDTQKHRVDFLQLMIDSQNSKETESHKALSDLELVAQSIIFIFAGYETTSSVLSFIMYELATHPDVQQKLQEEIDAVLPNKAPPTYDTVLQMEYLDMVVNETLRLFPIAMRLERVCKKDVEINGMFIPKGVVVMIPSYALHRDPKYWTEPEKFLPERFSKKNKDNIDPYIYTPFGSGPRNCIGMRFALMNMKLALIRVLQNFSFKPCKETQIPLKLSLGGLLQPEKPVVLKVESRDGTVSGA

| CYP 3A4 (% contribution) (CYP3A4) [%] | Contribution of CYP3A4 to metabolism (in words) (CYP3A4) | SMILES | half-life at 1 μM [1] [min] |
| --- | --- | --- | --- |
| 82.3 | – | [2H]C1([2H])CN(C(=O)c2cc(-c3cc(Cl)c4c(c3)CN([C@@H](C)C3CC3)C4=O)on2)CC([2H])([2H])O1 [Compound B, (S)-7-chloro-2-(1-cyclopropylethyl)-5-(3-(morpholine-4-carbonyl-2,2,6,6-d4)isoxazol-5-yl)isoindolin-1-one] | 40.1 |
| 99.7 | – | [2H]C1([2H])COCC([2H])([2H])N1C(=O)c1cc(-c2cc(Cl)c3c(c2)CN([C@@H](C)C2CC2)C3=O)on1 [Compound C, (S)-7-chloro-2-(1-cyclopropylethyl)-5-(3-(morpholine-4-carbonyl-3,3,5,5-d4)isoxazol-5-yl)isoindolin-1-one] | 33.3 |
| 100 | metabolized predominately by CYP3A4 | C[C@@H](C1CC1)N1Cc2cc(-c3cc(C(=O)N4CCOCC4)no3)cc(Cl)c2C1=O [Compound D, (S)-7-chloro-2-(1-cyclopropylethyl)-5-(3-(morpholine-4-carbonyl)isoxazol-5-yl)isoindolin-1-one, reference compound] | 29.9 |
| – | no measureable contribution | [2H]C1([2H])OC([2H])([2H])C([2H])([2H])N(C(=O)c2cc(-c3cc(Cl)c4c(c3)CN([C@@H](C)C3CC3)C4=O)on2)C1([2H])[2H] [Compound A, (S)-7-chloro-2-(1-cyclopropylethyl)-5-(3-(morpholine-4-carbonyl-2,2,3,3,5,5,6,6-d8)isoxazol-5-yl)isoindolin-1-one] | 40.1 |
